Laboratory results published in the supplement of paper PMC10307832.

How the values were obtained:
Assay in all cases: relative viability (nuclei count vs DMSO), 5 days (fraction); higher = more cells survive
XMD13-2 + Navitoclax = compound: C1CC1C(=O)NC2=NNC3=C2C=CC(=C3)C4=CC(=CC=C4)C(=O)NC5CC5 [XMD13-2] + CC1(C)CCC(c2ccc(Cl)cc2)=C(CN2CCN(c3ccc(C(=O)NS(=O)(=O)c4ccc(N[C@H](CCN5CCOCC5)CSc5ccccc5)c(S(=O)(=O)C(F)(F)F)c4)cc3)CC2)C1 [Navitoclax] (partner 0.5 µM)
Method in brief: (§1)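 Lung cancer cell lines were seeded in 1536-well plates and dosed by pin tool the next day, with either a single drug or a fixed anchor-drug dose combined with five library-drug doses (not always all listed) spaced in √10 steps. Five days later, one step fixed the cells and stained their nuclei (final 0.05% Triton X-100, 1% formaldehyde, 1 ug/ml Hoechst), and nuclei were counted on 4× images. Relative viability is the nuclei count in treated wells divided by the count in vehicle wells, and each value is the median of duplicate plates.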

XMD13-2 + Bortezomib = compound: C1CC1C(=O)NC2=NNC3=C2C=CC(=C3)C4=CC(=CC=C4)C(=O)NC5CC5 [XMD13-2] + CC(C)C[C@H](NC(=O)[C@H](Cc1ccccc1)NC(=O)c1cnccn1)B(O)O [Bortezomib] (partner 0.002 µM)
Method in brief: as §1

ALW-II-49-7 + Tozasertib = compound: Cc1ccc(C(=O)Nc2cccc(C(F)(F)F)c2)cc1Nc1cncc(C(N)=O)c1 [ALW-II-49-7] + Cc1cc(Nc2cc(N3CCN(C)CC3)nc(Sc3ccc(NC(=O)C4CC4)cc3)n2)n[nH]1 [Tozasertib] (partner 0.1 µM)
Method in brief: as §1

Dasatinib + Lapatinib = compound: Cc1nc(Nc2ncc(C(=O)Nc3c(C)cccc3Cl)s2)cc(N2CCN(CCO)CC2)n1 [Dasatinib] + CS(=O)(=O)CCNCc1ccc(-c2ccc3ncnc(Nc4ccc(OCc5cccc(F)c5)c(Cl)c4)c3c2)o1 [Lapatinib] (partner 2 µM)
Method in brief: as §1

Cell Line | relative viability (XMD13-2 + Navitoclax; first compound 0.05 µM) | relative viability (XMD13-2 + Navitoclax; first compound 0.1581 µM) | relative viability (XMD13-2 + Navitoclax; first compound 0.5 µM) | relative viability (XMD13-2 + Navitoclax; first compound 1.581 µM) | relative viability (XMD13-2 + Navitoclax; first compound 5 µM) | relative viability (XMD13-2 + Bortezomib; first compound 0.05 µM) | relative viability (XMD13-2 + Bortezomib; first compound 0.1581 µM) | relative viability (XMD13-2 + Bortezomib; first compound 0.5 µM) | relative viability (XMD13-2 + Bortezomib; first compound 1.581 µM) | relative viability (XMD13-2 + Bortezomib; first compound 5 µM) | relative viability (ALW-II-49-7 + Tozasertib; first compound 0.08 µM) | relative viability (ALW-II-49-7 + Tozasertib; first compound 0.253 µM) | relative viability (ALW-II-49-7 + Tozasertib; first compound 0.8 µM) | relative viability (ALW-II-49-7 + Tozasertib; first compound 2.53 µM) | relative viability (ALW-II-49-7 + Tozasertib; first compound 8 µM) | relative viability (Dasatinib + Lapatinib; first compound 0.005 µM) | relative viability (Dasatinib + Lapatinib; first compound 0.01581 µM) | relative viability (Dasatinib + Lapatinib; first compound 0.05 µM) | relative viability (Dasatinib + Lapatinib; first compound 0.1581 µM) | relative viability (Dasatinib + Lapatinib; first compound 0.5 µM)
HCC-15 | 0.792 | 0.661 | 0.704 | 0.725 | 0.535 | 1.12 | 0.994 | 1.11 | 0.981 | 1.05 | 0.325 | 0.367 | 0.272 | 0.328 | 0.333 | 0.887 | 0.942 | 0.846 | 0.764 | 0.658
SK-LU-1 | 0.915 | 0.832 | 0.664 | 0.803 | 0.82 | 1.26 | 1.41 | 1.1 | 0.764 | 1.15 | 0.323 | 0.391 | 0.295 | 0.289 | 0.242 | 0.467 | 0.53 | 0.424 | 0.305 | 0.298
NCI-H2023 | 1.01 | 1.03 | 0.893 | 0.968 | 1 | 1.16 | 0.928 | 1.06 | 0.986 | 0.983 | 0.257 | 0.464 | 0.276 | 0.259 | 0.189 | 0.584 | 0.703 | 0.742 | 0.758 | 0.64
HCC-366 | 1.12 | 1.07 | 1.13 | 1.06 | 1.19 | 1.24 | 0.988 | 0.969 | 1.04 | 1.04 | 0.168 | 0.17 | 0.0962 | 0.0839 | 0.0614 | 0.99 | 0.713 | 0.695 | 0.446 | 0.337
NCI-H1355 | 0.971 | 0.941 | 0.904 | 0.899 | 0.89 | 1.3 | 1.32 | 1.18 | 1.19 | 1.28 | 0.523 | 0.519 | 0.445 | 0.404 | 0.434 | 0.988 | 0.902 | 0.898 | 0.704 | 0.49
NCI-H1650 | 1.07 | 1.05 | 0.993 | 1.33 | 1.52 | 0.22 | 0.201 | 0.198 | 0.195 | 0.191 | 0.364 | 0.437 | 0.374 | 0.313 | 0.293 | 0.552 | 0.5 | 0.441 | 0.381 | 0.325
SW 1573 | 1.54 | 1.27 | 0.94 | 0.876 | 0.88 | 0.974 | 1.03 | 1.03 | 0.977 | 0.947 | 0.187 | 0.248 | 0.186 | 0.196 | 0.151 | 1.15 | 0.967 | 1.01 | 0.738 | 0.826
LU99A | 0.927 | 0.741 | 0.811 | 0.805 | 0.523 | 1.2 | 1.06 | 1.12 | 0.992 | 0.718 | 0.273 | 0.29 | 0.252 | 0.269 | 0.249 | 0.954 | 0.838 | 0.914 | 0.628 | 0.489
LCLC-97TM1 | 0.475 | 0.456 | 0.278 | 0.409 | 0.227 | 1.02 | 0.686 | 0.881 | 0.236 | 0.469 | 0.151 | 0.188 | 0.192 | 0.168 | 0.18 | 1.2 | 1.2 | 0.772 | 0.904 | 0.362
LC-2-ad | 0.772 | 0.503 | 0.519 | 0.368 | 0.375 | 1.25 | 1.11 | 1.1 | 1.01 | 1.08 | 0.405 | 0.428 | 0.431 | 0.209 | 0.434 | 0.648 | 0.876 | 0.952 | 0.699 | 0.186
NCI-H2228 | 1.15 | 0.949 | 0.643 | 0.668 | 0.841 | 1.48 | 1.16 | 1 | 1 | 0.872 | 0.261 | 0.263 | 0.277 | 0.171 | 0.22 | 0.829 | 1.06 | 0.705 | 0.731 | 0.551
HOP-62 | 1.18 | 1.07 | 1.19 | 1.05 | 1.04 | 1.03 | 0.726 | 0.842 | 1.23 | 0.756 | 0.278 | 0.341 | 0.368 | 0.358 | 0.289 | 1.02 | 0.971 | 0.789 | 0.983 | 0.337
NCI-H2347 | 0.726 | 0.827 | 0.919 | 0.786 | 0.981 | 1.02 | 0.977 | 1.09 | 0.952 | 1.09 | 0.422 | 0.543 | 0.463 | 0.563 | 0.57 | 0.872 | 0.951 | 1.04 | 0.691 | 0.386
NCI-H2087 | 1.01 | 1.13 | 1.02 | 0.968 | 0.959 | 0.917 | 1.25 | 1.08 | 0.782 | 0.856 | 0.222 | 0.266 | 0.271 | 0.162 | 0.16 | 1.03 | 0.839 | 0.95 | 1.09 | 0.605
EPLC-272H | 1.23 | 1.13 | 1.26 | 0.814 | 0.649 | 0.747 | 0.886 | 0.855 | 0.856 | 0.871 | 0.127 | – | 0.257 | 0.298 | 0.27 | 0.866 | 0.913 | 0.938 | 0.79 | 0.346
LXF-289 | 0.965 | 0.956 | 0.988 | 0.914 | 0.93 | 1.06 | 1.04 | 1.07 | 0.976 | 1 | 0.187 | 0.194 | 0.168 | 0.184 | 0.182 | 0.941 | 1.01 | 0.971 | 0.604 | 0.223
